Data published in patent publication US20060135569A1, “Use of benzisoselenazolone compounds against ischemic myocardial damage” (priority 2002, published 2006).
Marks after values point to notes of the source that are not given here.

Experiments:
TA97; TA98; TA100; TA102 = assay: Ames (mutagenesis) test, overall result in 4 strains; assay type: cell-based; conditions: 0.5, 5, 50 and 500 μg/dish
Protocol: (§1) To assess the mutagenic effects of 5 compounds (IMM-004; IMM-065; IMM-127; IMM-128; IMM-313), the Ames test was performed in 4 strains (TA97; TA98; TA100; TA102). The experiment was conducted with compounds at 4 concentration levels (0.5, 5, 50 and 500 μg/dish). […]

TA102 = assay: Ames test, strain TA102; assay type: cell-based
Protocol: as §1

[1] = test system: arrhythmia induced by ischemia/reperfusion insults in anesthetized rats; assay: Ischemia/reperfusion arrhythmia in anesthetized rats, oral administration; assay type: in vivo, rat; conditions: for protective effect: incidence/duration of VT, VF, duration of ventricular arrhythmic / protective effect: incidence/duration of VT, duration of ventricular arrhythmic: rats; for protective effect: incidence/duration of VT, duration of ventricular arrhythmic: 100 mg/kg orally
Protocol: IMM-004 and IMM-127 were dissolved in the solution of ethanol and PEG (ethanol: PEG (v/v)=1:9). Rats were orally administrated the compounds at volume of 10 ml/Kg. The left anterior descending coronary artery was ligated in rats for 15 min at 60 min after the administration, and then the reprefusion was achieved.
Arrhythmic potency induced by myocardial insults was used to assess the potential protective effect of the compounds.

TA98 = assay: Ames test, strain TA98; assay type: cell-based
Protocol: as §1

Na^+/Ca^2+ exchanger = biological target: T1, Na^+/Ca^2+ exchanger (Cavia porcellus, UniProt P48766); assay: Na^+/Ca^2+ exchange current (INa—Ca), whole-cell patch clamp, intracellular Na^+ overload cell model; assay type: cell-based, guinea pig
T1 construct: endogenous in cells; host or cells: freshly isolated guinea pig ventricular myocytes
Outline: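 Whole-cell patch clamp on guinea pig ventricular myocytes, Na⁺-loaded via pipette dialysis; holding −40 mV, step to +60 mV, ramp down at 80 mV·s⁻¹ to −100 mV, 0.05 Hz. K⁺, L-type Ca²⁺ and Na⁺/K⁺-ATPase blocked; INa–Ca taken as 5 mmol·L⁻¹ Ni²⁺-sensitive current.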

[2] = Example 1 table, myocardial cell
[3] = screening of 22 candidate compounds

## O=c1c2cc(Cl)ccc2[se]n1-c1ccccn1 [IMM-004, 5-chloro-2-(2-pyridyl)-1,2-benz-isoselenazol-3(2H)-one]
TA97; TA98; TA100; TA102
  mutagenic effect (Ames test): No evidence for a mutagenic effect
TA102; 0.5 μg/dish
  TA102 +S9: 328.67 ± 26.39
  TA102 −S9: 164.67 ± 62.66
TA102; 5 μg/dish
  TA102 +S9: 250.67 ± 7.54
  TA102 −S9: 218.67 ± 23.79
TA102; 50 μg/dish
  TA102 +S9: 297.33 ± 24.07
  TA102 −S9: 52.67 ± 6.59
TA102; 500 μg/dish
  TA102 +S9: 284.00 ± 64.27
  TA102 −S9: 16.00 ± 5.89
[1]; 10 mg/Kg orally
  protective effect: incidence/duration of VT, VF, duration of ventricular arrhythmic: No protective effect
[1]; 10 mg/Kg p.o.
  Occurrence time: 9.3 ± 10.0 s
  VE Duration time: 4.7 ± 12.9 s
  VE Incidence (%): 100%
  VF Duration time: 8.8 ± 7.4 s
  VF Incidence (%): 22.2%
  VT Duration time: 30.2 ± 17.6 s
  VT Incidence (%): 88.9%
[1]; 30 mg/Kg orally
  protective effect: incidence/duration of VT, VF, duration of ventricular arrhythmic: all reduced
[1]; 30 mg/Kg p.o.
  Occurrence time: 19.6 ± 24.1 s
  VE Duration time: 0.4 ± 1.3 s
  VE Incidence (%): 66.7%
  VF Duration time: 3.3 ± 5.7 s
  VF Incidence (%): 11.1* %
  VT Duration time: 17.0 ± 12.6 s
  VT Incidence (%): 44.4** %
[1]; 100 mg/Kg p.o.
  Occurrence time: 16.4 ± 25.1 s
  VE Duration time: 5.5 ± 10.2 s
  VE Incidence (%): 66.7%
  VF Duration time: 3.9 ± 6.8 s
  VF Incidence (%): 33.3%
  VT Duration time: 22.7 ± 19.4 s
  VT Incidence (%): 55.5* %
[1]
  protective effect: incidence/duration of VT, duration of ventricular arrhythmic: all reduced
TA98; 0.5 μg/dish
  TA98 +S9: 70.67 ± 6.85
  TA98 −S9: 56.33 ± 1.25
TA98; 5 μg/dish
  TA98 +S9: 48.33 ± 11.95
  TA98 −S9: 29.33 ± 0.94
TA98; 50 μg/dish
  TA98 +S9: 60.67 ± 26.64
  TA98 −S9: 19.67 ± 3.29
TA98; 500 μg/dish
  TA98 +S9: 55.33 ± 15.92
  TA98 −S9: 24.67 ± 4.71
Na^+/Ca^2+ exchanger; [2]
  Inhibitory rate of inward INa—Ca (%): 44%
  Inhibitory rate of outward INa—Ca (%): 52%
Na^+/Ca^2+ exchanger; [3]
  Inhibitory rate of inward INa—Ca (%): 44%
  Inhibitory rate of outward INa—Ca (%): 52* %

## O=c1c2cc(F)ccc2[se]n1-c1ccccn1 [IMM-127, 5-fluoro-2-(2-pyridyl)-1,2-benz-isoselenazol-3(2H)-one]
TA97; TA98; TA100; TA102
  mutagenic effect (Ames test): No evidence for a mutagenic effect
TA102; 0.5 μg/dish
  TA102 +S9: 205.33 ± 17.98
  TA102 −S9: 199.67 ± 17.13
TA102; 5 μg/dish
  TA102 +S9: 216.00 ± 21.42
  TA102 −S9: 224.67 ± 16.34
TA102; 50 μg/dish
  TA102 +S9: 250.67 ± 15.43
  TA102 −S9: 195.33 ± 35.22
TA102; 500 μg/dish
  TA102 +S9: 233.33 ± 16.11
  TA102 −S9: 143.67 ± 19.01
[1]; 10 mg/Kg orally
  protective effect: incidence/duration of VT, VF, duration of ventricular arrhythmic: significantly reduced
[1]; 10 mg/Kg p.o.
  Occurrence time: 15.5 ± 21.5 s
  VE Duration time: 2.5 ± 6.4 s
  VE Incidence (%): 100%
  VF Duration time: 6.6 ± 7.2 s
  VF Incidence (%): 22.2%
  VT Duration time: 32.1 ± 26.1 s
  VT Incidence (%): 66.7%
[1]; 30 mg/Kg orally
  protective effect: incidence/duration of VT, VF, duration of ventricular arrhythmic: all reduced
[1]; 30 mg/Kg p.o.
  Occurrence time: 9.6 ± 9.2 s
  VE Duration time: 0.2 ± 0.5 s
  VE Incidence (%): 100%
  VF Duration time: 3.2 ± 5.5 s
  VF Incidence (%): 11.1* %
  VT Duration time: 18.0 ± 11.4 s
  VT Incidence (%): 66.7%
[1]; 100 mg/Kg p.o.
  Occurrence time: 9.0 ± 19.7 s
  VE Duration time: 2.2 ± 63 s
  VE Incidence (%): 88.9%
  VF Duration time: 5.1 ± 7.8 s
  VF Incidence (%): 22.2%
  VT Duration time: 31.1 ± 21.3 s
  VT Incidence (%): 44.4** %
[1]
  protective effect: incidence/duration of VT, duration of ventricular arrhythmic: reduced
TA98; 0.5 μg/dish
  TA98 +S9: 73.67 ± 4.63
  TA98 −S9: 93.50 ± 10.50
TA98; 5 μg/dish
  TA98 +S9: 53.00 ± 5.72
  TA98 −S9: 85.00 ± 5.00
TA98; 50 μg/dish
  TA98 +S9: 42.33 ± 7.41
  TA98 −S9: 89.00 ± 10.61
TA98; 500 μg/dish
  TA98 +S9: 42.67 ± 5.31
  TA98 −S9: 96.00 ± 4.90
Na^+/Ca^2+ exchanger; [2]
  Inhibitory rate of inward INa—Ca (%): 21%
  Inhibitory rate of outward INa—Ca (%): 43%
Na^+/Ca^2+ exchanger; [3]
  Inhibitory rate of inward INa—Ca (%): 21%
  Inhibitory rate of outward INa—Ca (%): 43* %
